Test results taken from US20050215548A1 (Cyclacel Limited, priority 2002, published 2005).
Read-outs that look alike come from different tables or passages of the source.

Tests used:
H1299 = assay: 72-h MTT cytotoxicity assay, H1299; type: cell-based; settings: Homo sapiens, NCI-H1299; 72-h MTT; Table 1; read-out: IC50 Anti-proliferative effect on cell line H 1299
Experimental: (§1) The fluorescence polarisation competitive HDM2 binding assay described in Example 3 was used. Furthermore, the anti-proliferative potency of the compounds against three human tumour cell lines with different genetic make-up was also determined. […] The cell lines used were as follows: AGS, gastric adenocarcinoma, wild-type p53; H1299, large cell lung carcinoma, p53 null, low HDM2; SJSA-1, primitive multipotential bone sarcoma, wild-type p53, overexpressed HDM2.
(§2) Representative bisarylsulfonamide compounds were tested on a panel of transformed and non-transformed human cell lines, using a standard 72-h MTT cytotoxicity assay [Haselsberger K et al, ibid].

AGS = assay: 72-h MTT cytotoxicity assay, AGS; type: cell-based; settings: Homo sapiens, 72-h MTT, Table 1, read-out: IC50 Anti-proliferative effect on cell line AGS
Experimental: as §1, §2

SJSA-1 = assay: 72-h MTT cytotoxicity assay, SJSA-1; type: cell-based; settings: Homo sapiens, SJSA-1; 72-h MTT; Table 1; read-out: IC50 Anti-proliferative effect on cell line SJSA-1
Experimental: as §1, §2

[1] = tested on: E2F transcription factors; assay: E2F reporter gene assay (A549-derived luciferase reporter cell line); type: cell-based; settings: Homo sapiens
Experimental: A similar system to the p53 reporter assay described above was used, with the exception that it was designed to be responsive to E2F transcription factors rather than p53. An A549-derived cell line stably transfected with an E2F response element and a luciferase reporter gene was created. The genetic expression cassette construct used was from Clontech (Mercury™ Cell Cycle Profiling System). Assays were carried out as described above.
Representative bisarylsulfonamides were tested in the E2F gene reporter assay described in Example 6.

HDM2 = target: T1, HDM2 (Homo sapiens, UniProt Q00987); assay: Fluorescence polarisation competitive HDM2 binding assay
T1 construct: Recombinant HDM2 (1.5 μg per well) in TBS-BSA buffer
T1 sequence (Q00987 whole entry): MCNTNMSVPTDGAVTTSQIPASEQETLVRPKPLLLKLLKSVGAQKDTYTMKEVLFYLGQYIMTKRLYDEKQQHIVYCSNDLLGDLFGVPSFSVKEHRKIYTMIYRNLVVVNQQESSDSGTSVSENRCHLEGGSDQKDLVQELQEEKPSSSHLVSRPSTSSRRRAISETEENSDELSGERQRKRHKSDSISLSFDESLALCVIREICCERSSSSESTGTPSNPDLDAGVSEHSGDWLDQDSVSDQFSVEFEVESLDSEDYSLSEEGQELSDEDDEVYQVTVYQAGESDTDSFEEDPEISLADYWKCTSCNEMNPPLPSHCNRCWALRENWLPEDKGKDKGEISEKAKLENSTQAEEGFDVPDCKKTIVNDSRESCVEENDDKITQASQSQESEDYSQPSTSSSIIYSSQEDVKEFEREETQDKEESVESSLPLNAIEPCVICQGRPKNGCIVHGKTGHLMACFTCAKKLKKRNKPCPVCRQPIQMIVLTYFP
Outline: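 Recombinant HDM2 (1.5 μg/well) was preincubated 5 min at room temperature with serially diluted compound in 50 mM Tris pH 7.4, 150 mM NaCl, 0.1% BSA, 5% DMSO final. Fluorescein-labelled p53 peptide (0.2 μM) was then added for 45 min. Polarisation was read at 485/520 nm and IC50 derived from dose-response curves.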

p53 = p53 reporter gene assay (U2OS-derived luciferase reporter cell line); settings: for Fold induction of luciferase activity: compared to basal luciferase activity, 16-h time point, at concentration of maximal induction; for Concentration (test compound concentration at which the p53 induction was maximal): p53 reporter, U2OS-derived cell line
Experimental: A dual assay assessing both cell viability and p53 response was employed. A U2OS-derived cell line stably transfected with a p53 response element and a luciferase reporter gene was created. […] After seeding of cells into 96-well tissue culture plates, treatment with test compounds, and incubation for the desired duration, the cell proliferation reagent WST-1 (Roche Molecular Biochemicals) was used to determine cell viability. The Bright-Glo™ Luciferase Assay System (Promega) was used to measure luciferase activity. The data from the cell viability assay was used to normalise data from the luciferase assay.

[2] = after 3-h treatment with test compounds, read-out: IC50 E2F reporter, Non-synchronised cells
[3] = after 3-h treatment, synchronisation with 0.3 mM mimosine for 24 h, followed by wash-out, read-out: IC50 E2F reporter, Synchronised cells
[4] = fluorescence polarisation format, Table 1, read-out: IC50 In vitro competitive HDM2 binding assay
[5] = fluorescence polarisation assay, Table 3, read-out: In vitro competitive HDM2 binding assay IC50

Compound | IC50 [1, 2] [µM] | IC50 [1, 3] [µM] | IC50 (HDM2; [4]) [µM] | IC50 (HDM2; [5]) [µM] | Fold induction of luciferase activity (p53) [fold] | IC50 (H1299) [µM] | IC50 (AGS) [µM] | IC50 (SJSA-1) [µM] | Concentration (test compound concentration at which the p53 induction was maximal) (p53) [µM]
O=S(=O)(Nc1ccc(C(F)(F)F)cc1)c1cnc(Cl)c(Br)c1 [Compound 41, 5-Bromo-6-chloropyridine-3-sulfonic acid (4-trifluoromethylphenyl)amide] | 76.6 | 84 | 258 ± 12 | – | – | 28 | 31 ± 2 | 53 ± 3 | –
O=[N+]([O-])c1cc(S(=O)(=O)NCc2cc(Cl)cc(Cl)c2)sc1Cl [Compound 54, 5-Chloro-4-nitro-thiophene-2-sulfonic acid 3,5-dichloro-benzylamide] | – | – | 20.2 ± 1.3 | 20.2 ± 1.3 | 90 | 9.7 ± 2.9 | 5.6 ± 0.2 | 12 ± 0.4 | 10
O=[N+]([O-])c1cc(S(=O)(=O)NCc2cc(F)cc(F)c2)sc1Cl [Compound 55, 5-Chloro-4-nitro-thiophene-2-sulfonic acid 3,5-difluoro-benzylamide] | – | – | 27 ± 10.1 | 27 ± 10.1 | 53 | 9.3 ± 2.5 | 7 | 13.3 ± 2.1 | 10
CC(NS(=O)(=O)c1cc([N+](=O)[O-])c(Cl)s1)c1ccc(F)cc1 (stereo not shown) [Compound 57, 5-Chloro-4-nitro-thiophene-2-sulfonic acid [1-(4-fluoro-phenyl)-ethyl]-amide] | – | – | 31.1 ± 5.6 | 31.1 ± 5.6 | 25 | 2.7 ± 0.6 | 1.7 ± 0.3 | 5.9 ± 0.2 | 7
O=[N+]([O-])c1cc(S(=O)(=O)NCCc2c[nH]c3cc(Cl)ccc23)sc1Cl [Compound 60, 5-Chloro-4-nitro-thiophene-2-sulfonic acid [2-(6-chloro-1H-indol-3-yl)-ethyl]-amide] | 29.2 ± 6.8 | – | 29 ± 6 | 29 ± 6 | 48 | – | – | – | 7.5
COc1ccc(NS(=O)(=O)c2cc([N+](=O)[O-])c(Cl)s2)cc1 [Compound 61, 5-Chloro-4-nitro-thiophene-2-sulfonic acid (4-methoxy-phenyl)-amide] | 34.6 ± 22.9 | – | 45 ± 14 | 45 ± 14 | 34 | 2.7 ± 0.4 | 1.8 ± 0.4 | 2.8 ± 0.2 | 4.8
Cc1ccc(NS(=O)(=O)c2cc([N+](=O)[O-])c(Cl)s2)cc1 [Compound 63, 5-Chloro-4-nitro-thiophene-2-sulfonic acid p-tolylamide] | – | – | 35 ± 8 | 35 ± 8 | 95 | 3.9 ± 0.9 | 1.7 ± 0.6 | 5.7 ± 1.6 | 6.4
O=[N+]([O-])c1cc(S(=O)(=O)N(Cc2ccccc2)c2ccc(Cl)cc2)sc1Cl [Compound 65, 5-Chloro-4-nitro-thiophene-2-sulfonic acid benzyl-(4-chloro-phenyl)-amide] | – | – | 7.4 ± 1 | 7.4 ± 1 | 74 | 10.8 ± 4.3 | 5.2 ± 2.2 | 11.1 ± 6.7 | 10

The next lines start with results.

IC50 [1, 2] [µM] | IC50 [1, 3] [µM] | IC50 (HDM2; [4]) [µM] | IC50 (HDM2; [5]) [µM] | Fold induction of luciferase activity (p53) [fold] | Compound | IC50 (H1299) [µM] | IC50 (AGS) [µM] | IC50 (SJSA-1) [µM] | Concentration (test compound concentration at which the p53 induction was maximal) (p53) [µM]
73.3 ± 33.4 | 72 ± 31 | 105 ± 26 | – | – | O=[N+]([O-])c1cc(S(=O)(=O)Nc2ccc(O)cc2)sc1Cl [Compound 5, 5-Chloro-4-nitrothiophene-2-sulfonic acid (4-hydroxyphenyl)amide] | 8.7 ± 2.2 | 2.2 ± 0.6 | 24 ± 2.1 | –
90 | – | 46.1 ± 3.4 | 46.1 ± 3.4 | 64 | O=[N+]([O-])c1cc(S(=O)(=O)Nc2cc(Cl)cc(Cl)c2)sc1Cl [Compound 39, 5-Chloro-4-nitrothiophene-2-sulfonic acid (3,5-dichlorophenyl)-amide] | 12.1 ± 4 | 4.9 ± 1.6 | 27.2 ± 0.4 | 15
99.5 | – | 59.6 ± 10.5 | 59.6 ± 10.9 | 68 | O=[N+]([O-])c1cc(S(=O)(=O)Nc2cc(F)cc(F)c2)sc1Cl [Compound 40, 5-Chloro-4-nitrothiophene-2-sulfonic acid (3,5-difluorophenyl)-amide] | 10.6 ± 0.4 | 4 ± 0.3 | 26.4 ± 0.2 | 13
25.5 ± 3.1 | – | 11.1 ± 1.7 | 11.1 ± 1.7 | 55 | O=[N+]([O-])c1cc(S(=O)(=O)NCc2ccc(C(F)(F)F)cc2)sc1Cl [Compound 46, 5-Chloro-4-nitrothiophene-2-sulfonic acid 4-trifluoromethylbenzylamide] | 3.4 ± 0.5 | 1.3 ± 0.5 | 4.4 ± 1.1 | 6
31.3 ± 2.6 | – | 25.3 ± 4.6 | 25.3 ± 4.6 | 43.5 | O=[N+]([O-])c1cc(S(=O)(=O)NCCc2c[nH]c3ccccc23)sc1Cl [Compound 48, 5-Chloro-4-nitrothiophene-2-sulfonic acid [2-(1H-indol-3-yl)-ethyl]amide] | 3.6 ± 0.9 | 2.6 ± 1.4 | 3.1 ± 1 | 5.5
44.6 ± 2.3 | – | 18 | – | – | O=[N+]([O-])c1cc(S(=O)(=O)NCc2ccccc2)sc1Cl [Compound 64, 5-Chloro-4-nitro-thiophene-2-sulfonic acid benzylamide] | 6.3 ± 2.1 | 3.6 ± 0.2 | 7.3 ± 1.7 | –
– | – | 14.7 ± 0.9 | 14.7 ± 0.9 | 65 | COc1ccc(N(Cc2ccccc2)S(=O)(=O)c2cc([N+](=O)[O-])c(Cl)s2)cc1 [Compound 66, 5-Chloro-4-nitro-thiophene-2-sulfonic acid benzyl-(4-methoxy-phenyl)-amide] | 3.9 ± 0.5 | 2.4 ± 0.2 | 3.9 ± 1.3 | 4.2
29.4 ± 6 | – | 119 ± 43 | 119 ± 42.5 | 10 | O=[N+]([O-])c1cc(S(=O)(=O)Nc2nc3ccccc3[nH]2)ccc1Cl [Compound 83, N-(1H-Benzoimidazol-2-yl)-4-chloro-3-nitro-benzenesulfonamide] | 1.4 ± 0.2 | 0.9 ± 0.1 | 2.3 ± 0.9 | 5
